“And” between values parts separate entries of the source, which are not always exact repeats. Equal values may be shown once. Read-outs that look alike come from different tables or passages of the source.
Experiments:
Wistar rats = assay: feeding behavior (food, water, urine) after sub-chronic administration in metabolic cages; assay type: in vivo, rat; conditions: 3 mg/kg s.c. for 6 days, treatment period value (vs pre-treatment)
Procedure: The compound 13 has been examined for its in vivo activity in rats. Male Wistar rats weighing 180–240 g at the beginning of the experiments were used for the study. Animals were individually housed in standard cages with liquid and food available ad libitum, under an artificial reversed 12-h light–dark cycle with light off at 7 a.m., temperature 21–22 °C and 60–65% humidity.
Before the start of the experiments, the animals were habituated for 7 days to the conditions in the animal facility. Pharmacological treatments were carried out in the dark phase of the cycle. During the drug administration, the rats were kept in metabolic cages (Tecniplast, Italy). After an additional one day adaptation, there was a 3-day pre-treatment phase.
(§1) The compound 13 was given to intact Wistar rats to verify its impact on the metabolism of biogenic amines in the brain (cerebral amines and their metabolites concentrations as well as activities of metabolizing enzymes). […] Both drugs (3 mg/kg body mass, dissolved in 0.9% NaCl) were given subcutaneously for 6 consecutive days. Control rats were injected with 200 μL of 0.9% NaCl.
The volumes of consumed food and water, as well as urine excretion, were recorded daily and expressed in g or mL per 100 g of body mass or mL per 24 h, respectively.
The final results are given as means with SEM calculated for each 24-h period, computed from 3-day (pre-treatment phase) or 6-day (pharmacological treatment) monitoring. All experimental procedures were undertaken according to EU directives and local ethical regulations.

[1] = tested on: rat brain (cerebral cortex, hypothalamus, striatum) monoamines; assay: HPLC-ED detection of monoamines and metabolites in rat brain tissue after sub-chronic administration; assay type: in vivo; conditions: for 5-HIAA/5-HT ratio / DOPAC/DA ratio / HVA/DA ratio / MHPG/NA ratio: mean ± SEM
Procedure: as §1
Tissues were collected and properly prepared for subsequent biochemical analyzes. The brain was quickly removed from the skull and the selected structures (hypothalamus, striatum, cerebral cortex) were dissected according to the method by Glowinsky and Iversen, immediately frozen in liquid nitrogen and kept at −80 °C until assayed.
The concentration of dopamine (DA), serotonin (5-HT) and noradrenaline (NA) as well as their metabolites, i.e., 3,4-dihydroxyphenylacetic acid (DOPAC), homovanillic acid (HVA), 3-methoxy-4-hydroxyphenylglycol (MHPG) and 5-hydroxyindoleacetic acid (5-HIAA) was determined in striatum (STR), hypothalamus (HPT) and cerebral cortex (CTX) with the RP-HPLC-ED method.
Cerebral samples for HPLC analysis were homogenized using an ultrasonic homogenizer (Fisher BioBlock Scientific, France) for 15 s in 150 μL homogenization solution (0.1 M HClO4 containing 0.4 mM Na2S2O5), and centrifuged at 12,000 rpm for 15 min at 4 °C. At least 100 μL of the supernatant was transferred to chromatographic tubes and kept at –80 °C until analysis. Next, 20 μL of the filtrates was injected into the HPLC system.
The Agilent 1100 chromatographic system with Waters Spherisorb ODS-1 RP C-18 chromatographic column (4.6 × 250 mm) preceded by a Zorbax SB-C18 pre-column (4.6 × 12.5 mm) was used. Column temperature was set at 35 °C and mobile phase flow at 1 mL/min. The glassy carbon working electrode was set at +0.65 V, relative to the Ag/AgCl reference electrode. The mobile phase consisted of a phosphate buffer (3.4 pH) containing: 0.15 M NaH2PO4 x H2O, […] Na2EDTA, 0.5 mM Na2OSA, 0.5 mM LiCl and addition of methanol (10%). The chromatographic data were analyzed using ChemStation, Revision-B.03.02, Agilent software.
The concentrations of monoamines and their metabolites in each sample were calculated from the integrated chromatographic peak area and presented in nmol/gram of wet tissue. Additionally, the ratio of metabolites to their parent amines was calculated.

[2] = tested on: astrocyte cell line isolated from human cerebral cortex; assay: MTT cell viability test on human astrocytes; assay type: cell-based; conditions: Astrocyte, human astrocytes, MTT
Procedure: The studies were performed on a commercially-available astrocyte cell line isolated from human cerebral cortex (ScienCell Research Laboratories, San Diego, CA, USA; Cat no. 1800). The cells (passage 7–8) were seeded into a 96-well plate at an amount of 10,000 cells/well and kept in accordance with the ScienCell Research Laboratories’ protocol, i.e., in astrocyte medium supplemented with 2% fetal bovine serum, 10% astrocyte growth supplement and 1% penicillin/streptomycin solution, in an atmosphere with 5% CO2 at 37 °C. The cells were allowed to grow for 24 h and then treated with increasing concentrations of test compounds (0.01–0.25 mg/mL) for 24 and 72 h. Astrocytes in the medium on each plate (regardless of the factors tested) were used as a positive control.
The viability of the astrocyte cell line was determined calorimetrically using 3-(4,5-dimethylthazol-2-yl)-2,5-diphenyltetrazolium bromide (MTT; Sigma-Aldrich Chemical Co. Ltd., Saint Louis, MO, USA) as described earlier. […] After the incubation time (24 or 72 h) with examined drugs, 50 μL MTT solution (1 mg/mL) was added to each well of the plate for another 4 h. The method is based on the reduction of a yellow tetrazolium salt (MTT) into purple formazan crystals by mitochondrial succinate-tetrazolium reductase system which is metabolically active in viable cells. At the end of the experiment, the cells were treated with 100 μL dimethyl sulphoxide, which enabled the release of the reaction product.
The absorbance was measured at 570 nm using a BioTek EL×800 microplate reader (BioTek, Winooski, Vermont, USA) and results were expressed as a percentage of the absorbance measured in control cells. The obtained values were plotted against different concentrations of each compound to calculate the viability inhibition concentration at 50% (IC50) using GraphPad Prism 6.07 (GraphPad Software, Inc., San Diego, CA, USA). The experiment was repeated in quadruplicate.
For the cytotoxicity assessment in the MTT assays, each test drug was used at 8 concentrations (range: 0.01–0.25 mg/mL).

[3] = cerebral cortex, 3 mg/kg s.c. for 6 days
[4] = not statistically significant, vs control
[5] = striatum, 3 mg/kg s.c. for 6 days
[6] = 24 h incubation, read-out: IC50 24 h
[7] = 72 h incubation, read-out: IC50 72 h

`CC1CCCN1CCCOc1ccc(C(C)(C)C)cc1.O=C(O)C(=O)O` (stereo not drawn) [Compound 13, 1-(3-(4-(tert-Butyl)phenoxy)propyl)-2-methylpyrrolidine hydrogen oxalate] showed a food consumption (Wistar rats) of 8.61 ± 0.11 g/100 g bw, a urine output (Wistar rats) of 8.90 ± 0.045 mL/24 h and a water consumption (Wistar rats) of 13.37 ± 0.31 mL/100 g bw/24 h. The 5-HIAA/5-HT ratio ([1]; CTX, 3 mg/kg s.c. for 6 days) was 1.211 ± 0.202, the DOPAC/DA ratio ([1]; CTX, 3 mg/kg s.c. for 6 days) was 0.364 ±0.080 **^,## and the HVA/DA ratio ([1]; CTX, 3 mg/kg s.c. for 6 days) was 0.254 ± 0.015 *^,##. It also gave a 5-HIAA/5-HT ratio ([1]; HPT, 3 mg/kg s.c. for 6 days) of 0.810 ±0.061, a DOPAC/DA ratio ([1]; HPT, 3 mg/kg s.c. for 6 days) of 0.359 ±0.117 and an HVA/DA ratio ([1]; HPT, 3 mg/kg s.c. for 6 days) of 0.329 ± 0.091. The MHPG/NA ratio ([1]; HPT, 3 mg/kg s.c. for 6 days) was 0.205 ±0.030, the 5-HIAA/5-HT ratio ([1]; STR, 3 mg/kg s.c. for 6 days) was 2.456 ± 0.908 and the DOPAC/DA ratio ([1]; STR, 3 mg/kg s.c. for 6 days) was 0.207 ± 0.067. For the same compound, the HVA/DA ratio ([1]; STR, 3 mg/kg s.c. for 6 days) was 0.486 ± 0.388, the MHPG/NA ratio ([1]; STR, 3 mg/kg s.c. for 6 days) was 0.329 ± 0.057 and the “5-HIAA level in CTX” value [1, 3] was 1.320 ± 0.153 nmol/g wet tissue. The “5-HT level in CTX” value [1, 3] was 1.194 ± 0.139 nmol/g wet tissue, the “DA content in CTX” value [1, 3] was 1.777 ± 0.128 nmol/g wet tissue and the “DOPAC level in CTX” value [1, 3] was 0.562 ± 0.093 nmol/g wet tissue. The “MHPG concentration in CTX” value [1, 3] was 0.897 ± 0.280 nmol/g wet tissue, the “NA concentration in CTX” value [1, 3] was 1.255 ± 0.152 nmol/g wet tissue and the “DA concentration in hypothalamus, in words” value [1, 4] was “slight increase”. For the same compound, the “DOPAC concentration in hypothalamus, in words” value [1, 4] was “decrease”, the “DA content in STR” value [1, 5] was 9.914 ± 1.718 nmol/g wet tissue and the “DOPAC level in STR” value [1, 5] was 1.704 ± 0.187 nmol/g wet tissue. The “5-HIAA level in hypothalamus, in words” value ([1]; vs control) was “statistically significant decrease”, the “5-HT and 5-HIAA concentrations in the striatum, in words” value ([1]; vs control) was “did not affect” and the “5-HT content in hypothalamus, in words” value ([1]; vs control) was “no changes”. The “NA and MHPG concentration in the other examined brain structures (HPT, STR), in words” value ([1]; vs control) was “no differences were found”, the IC50 [2, 6] was 230 µM and 84 µg/mL and the IC50 [2, 7] was 142 µM and 52 µg/mL.

For `Clc1ccc(CCCOCCCN2CCCCC2)cc1` [Pitolisant, 3-(4-chlorophenyl)propyl 3-piperidinopropyl ether, reference compound], the food consumption (Wistar rats) was 8.95 ± 0.14 g/100 g bw, the urine output (Wistar rats) was 9.08 ± 0.49 mL/24 h and the water consumption (Wistar rats) was 14.16 ± 0.43 mL/100 g bw/24 h. For the same compound, the “content in brain tissue of the examined biogenic amines and their metabolites compared to control, in words” value ([1]; 3 mg/kg s.c. for 6 days) was “did not show any differences”, the IC50 [2, 6] was 346 µM and 115 µg/mL and the IC50 [2, 7] was 241 µM and 80 µg/mL.

From paper PMC9607599, “Dual Targeting Ligands—Histamine H3 Receptor Ligands with Monoamine Oxidase B Inhibitory Activity—In Vitro and In Vivo Evaluation” (Pharmaceutics, 2022)
